Assay [1] addresses Stromelysin-1 (Homo sapiens, UniProt P08254). The experiment in a line: Inhibition of MMP3 (unknown origin).
Assay [2] has as its target Neutrophil collagenase (Homo sapiens, UniProt P22894). The experiment in a line: Inhibition of MMP8 (unknown origin).
Assay [3] addresses 72 kDa type IV collagenase (Homo sapiens, UniProt P08253). The experiment in a line: Inhibition of MMP2 (unknown origin).
Assay [4] has as its target Matrix metalloproteinase-9 (Homo sapiens, UniProt P14780). The experiment in a line: Inhibition of MMP9 (unknown origin).
Assay [5] deals with T1, Interstitial collagenase (Homo sapiens, UniProt P03956).
T1 sequence (P03956 whole entry): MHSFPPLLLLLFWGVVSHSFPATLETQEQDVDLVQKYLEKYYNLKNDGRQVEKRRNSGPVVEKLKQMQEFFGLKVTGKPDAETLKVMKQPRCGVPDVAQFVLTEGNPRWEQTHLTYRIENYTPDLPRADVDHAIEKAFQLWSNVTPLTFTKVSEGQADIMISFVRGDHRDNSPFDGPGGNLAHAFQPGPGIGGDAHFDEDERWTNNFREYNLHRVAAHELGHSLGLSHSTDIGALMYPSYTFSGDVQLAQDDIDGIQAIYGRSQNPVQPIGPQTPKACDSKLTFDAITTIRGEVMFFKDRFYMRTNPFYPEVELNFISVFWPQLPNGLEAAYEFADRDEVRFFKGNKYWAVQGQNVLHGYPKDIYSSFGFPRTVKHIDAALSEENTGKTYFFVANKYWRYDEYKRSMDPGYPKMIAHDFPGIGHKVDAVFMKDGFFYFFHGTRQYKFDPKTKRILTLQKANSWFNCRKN
The experiment in a line: Inhibition of MMP1 (unknown origin).

The target of assay [6] is T2, Matrix metalloproteinase-17 (Homo sapiens, UniProt Q9ULZ9).
T2 sequence (Q9ULZ9 whole entry): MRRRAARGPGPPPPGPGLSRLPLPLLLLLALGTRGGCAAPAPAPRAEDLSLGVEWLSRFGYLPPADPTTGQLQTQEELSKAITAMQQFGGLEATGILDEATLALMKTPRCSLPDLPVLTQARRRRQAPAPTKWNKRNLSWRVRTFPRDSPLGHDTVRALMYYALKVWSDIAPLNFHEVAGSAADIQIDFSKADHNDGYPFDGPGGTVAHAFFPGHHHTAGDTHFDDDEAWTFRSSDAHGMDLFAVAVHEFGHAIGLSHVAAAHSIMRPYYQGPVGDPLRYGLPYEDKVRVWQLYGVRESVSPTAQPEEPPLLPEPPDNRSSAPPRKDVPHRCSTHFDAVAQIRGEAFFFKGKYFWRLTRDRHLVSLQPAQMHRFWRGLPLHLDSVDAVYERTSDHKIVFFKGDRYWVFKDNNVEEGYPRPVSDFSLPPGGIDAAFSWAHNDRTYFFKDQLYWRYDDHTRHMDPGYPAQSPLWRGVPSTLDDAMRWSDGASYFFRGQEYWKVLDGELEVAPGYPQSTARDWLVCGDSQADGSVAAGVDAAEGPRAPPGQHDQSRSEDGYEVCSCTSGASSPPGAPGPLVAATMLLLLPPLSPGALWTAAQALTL
As to the kind of experiment: Inhibition of MMP17 (unknown origin).

Assay [7] addresses T3, Matrilysin (Homo sapiens, UniProt P09237).
T3 sequence (P09237 whole entry): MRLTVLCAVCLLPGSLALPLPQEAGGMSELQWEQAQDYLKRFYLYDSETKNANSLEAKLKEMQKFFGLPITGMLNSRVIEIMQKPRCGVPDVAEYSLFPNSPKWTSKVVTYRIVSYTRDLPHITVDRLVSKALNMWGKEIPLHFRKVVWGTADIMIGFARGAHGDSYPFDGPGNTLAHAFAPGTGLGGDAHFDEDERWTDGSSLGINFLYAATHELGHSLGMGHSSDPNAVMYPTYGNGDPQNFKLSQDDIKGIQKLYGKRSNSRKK
As to the kind of experiment: Inhibition of MMP7 (unknown origin).

In assay [8] the target is Macrophage metalloelastase (Homo sapiens, UniProt P39900). As to the kind of experiment: Inhibition of MMP12 (unknown origin).
Assay [9] concerns the target Matrix metalloproteinase-14 (Homo sapiens, UniProt P50281). The experiment in a line: Inhibition of MMP14 (unknown origin).

Our source for the IC50 and Ki values is ChEMBL document CHEMBL3352020, “Targeting matrix metalloproteinases: exploring the dynamics of the s1' pocket in the design of selective, small molecule inhibitors” (J Med Chem, 2014).

Structures are written as SMILES.

Neutrophil collagenase, sequence (P22894 whole entry): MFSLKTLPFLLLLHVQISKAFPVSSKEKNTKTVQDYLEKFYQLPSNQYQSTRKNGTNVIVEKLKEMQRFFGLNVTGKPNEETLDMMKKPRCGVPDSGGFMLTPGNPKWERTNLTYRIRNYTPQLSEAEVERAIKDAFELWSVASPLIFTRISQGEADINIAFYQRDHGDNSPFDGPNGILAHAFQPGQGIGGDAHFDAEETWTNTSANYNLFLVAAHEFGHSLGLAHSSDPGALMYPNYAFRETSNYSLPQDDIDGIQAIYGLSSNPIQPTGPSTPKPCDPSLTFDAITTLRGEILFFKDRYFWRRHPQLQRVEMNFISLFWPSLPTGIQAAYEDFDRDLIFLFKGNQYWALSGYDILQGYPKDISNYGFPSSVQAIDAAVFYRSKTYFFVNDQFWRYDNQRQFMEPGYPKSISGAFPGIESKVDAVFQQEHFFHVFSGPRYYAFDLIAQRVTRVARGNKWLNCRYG
Matrix metalloproteinase-9, sequence (P14780 whole entry): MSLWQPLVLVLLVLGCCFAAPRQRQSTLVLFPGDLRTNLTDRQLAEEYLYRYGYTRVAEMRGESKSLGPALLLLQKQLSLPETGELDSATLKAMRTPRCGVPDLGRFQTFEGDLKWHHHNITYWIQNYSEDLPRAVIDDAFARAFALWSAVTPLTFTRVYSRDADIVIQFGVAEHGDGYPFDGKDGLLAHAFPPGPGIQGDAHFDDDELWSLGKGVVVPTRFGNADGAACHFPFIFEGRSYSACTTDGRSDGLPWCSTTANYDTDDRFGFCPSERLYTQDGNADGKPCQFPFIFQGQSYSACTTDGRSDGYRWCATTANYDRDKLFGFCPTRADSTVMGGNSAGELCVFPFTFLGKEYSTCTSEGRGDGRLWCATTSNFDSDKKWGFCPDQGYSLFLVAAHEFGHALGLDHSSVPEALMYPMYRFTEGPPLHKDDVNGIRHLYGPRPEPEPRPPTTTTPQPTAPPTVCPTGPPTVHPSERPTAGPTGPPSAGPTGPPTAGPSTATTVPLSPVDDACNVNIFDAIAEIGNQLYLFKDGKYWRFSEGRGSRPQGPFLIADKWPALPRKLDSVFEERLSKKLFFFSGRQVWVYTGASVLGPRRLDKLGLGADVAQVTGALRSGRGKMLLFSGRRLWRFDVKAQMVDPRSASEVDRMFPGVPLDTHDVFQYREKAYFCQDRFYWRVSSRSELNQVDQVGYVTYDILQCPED
Macrophage metalloelastase, sequence (P39900 whole entry): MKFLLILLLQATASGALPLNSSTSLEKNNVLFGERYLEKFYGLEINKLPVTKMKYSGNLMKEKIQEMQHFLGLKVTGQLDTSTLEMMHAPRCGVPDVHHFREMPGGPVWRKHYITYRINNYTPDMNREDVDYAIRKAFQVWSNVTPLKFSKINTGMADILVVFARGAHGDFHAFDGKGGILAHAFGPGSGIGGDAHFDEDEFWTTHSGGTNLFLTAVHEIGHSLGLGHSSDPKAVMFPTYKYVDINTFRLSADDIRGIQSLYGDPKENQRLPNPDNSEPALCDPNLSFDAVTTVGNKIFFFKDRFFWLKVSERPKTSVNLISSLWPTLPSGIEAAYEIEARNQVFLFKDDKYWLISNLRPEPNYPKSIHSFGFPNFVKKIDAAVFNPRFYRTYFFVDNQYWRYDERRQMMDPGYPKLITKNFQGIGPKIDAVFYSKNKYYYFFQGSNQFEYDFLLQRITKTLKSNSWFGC
Stromelysin-1, sequence (P08254 whole entry): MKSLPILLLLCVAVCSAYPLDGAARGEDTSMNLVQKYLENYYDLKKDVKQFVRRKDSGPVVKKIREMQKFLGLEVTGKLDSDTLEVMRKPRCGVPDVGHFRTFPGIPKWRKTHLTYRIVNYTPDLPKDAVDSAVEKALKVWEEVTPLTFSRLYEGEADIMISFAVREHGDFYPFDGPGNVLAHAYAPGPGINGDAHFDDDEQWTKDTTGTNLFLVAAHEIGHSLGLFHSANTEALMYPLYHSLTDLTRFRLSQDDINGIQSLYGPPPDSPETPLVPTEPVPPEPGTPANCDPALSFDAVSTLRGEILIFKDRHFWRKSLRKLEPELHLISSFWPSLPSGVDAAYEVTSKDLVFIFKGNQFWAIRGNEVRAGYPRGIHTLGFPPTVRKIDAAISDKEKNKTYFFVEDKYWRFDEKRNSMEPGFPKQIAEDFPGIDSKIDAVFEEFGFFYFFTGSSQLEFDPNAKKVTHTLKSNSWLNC
72 kDa type IV collagenase, sequence (P08253 whole entry): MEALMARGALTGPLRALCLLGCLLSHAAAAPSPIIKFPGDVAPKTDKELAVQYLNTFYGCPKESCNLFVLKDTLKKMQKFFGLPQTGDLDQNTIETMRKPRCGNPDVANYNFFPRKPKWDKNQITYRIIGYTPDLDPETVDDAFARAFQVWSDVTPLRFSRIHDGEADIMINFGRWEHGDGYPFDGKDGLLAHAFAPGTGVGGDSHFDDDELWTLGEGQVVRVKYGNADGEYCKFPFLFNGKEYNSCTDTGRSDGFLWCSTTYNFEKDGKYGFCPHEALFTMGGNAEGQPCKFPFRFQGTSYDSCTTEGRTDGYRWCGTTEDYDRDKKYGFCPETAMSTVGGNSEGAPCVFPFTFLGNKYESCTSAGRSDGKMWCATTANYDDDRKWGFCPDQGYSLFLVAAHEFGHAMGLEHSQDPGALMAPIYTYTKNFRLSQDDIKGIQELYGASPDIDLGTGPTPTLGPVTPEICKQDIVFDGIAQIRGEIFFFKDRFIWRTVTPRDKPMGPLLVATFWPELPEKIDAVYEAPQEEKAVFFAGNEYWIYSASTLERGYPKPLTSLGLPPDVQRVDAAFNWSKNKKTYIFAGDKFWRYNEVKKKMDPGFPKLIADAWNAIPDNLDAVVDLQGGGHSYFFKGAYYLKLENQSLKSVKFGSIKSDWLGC

On to `O=C1N=C(O)NC(=O)[C@@]1(c1ccccc1)N1CCC(CCO)CC1`, for which the IC50 in [1] was determined as 30000 nM; in [2], 1700 nM.

In the case of `CC(C)N(C)c1ccc(-c2cn(-c3ccc(S(=O)(=O)C4(C(=O)NO)CCNCC4)cc3)nn2)cc1`, the IC50 in assay [3] was found to be 3 nM; in assay [4], 346 nM.

In assay [5], `CC#CCOc1ccc(Oc2ccc(S(=O)(=O)NC(C(=O)NO)C(C)C)cc2)cc1` (stereo not drawn) yielded an IC50 of 40 nM.

With `O=C(CC1(S(=O)(=O)c2ccc(Oc3ccccc3)cc2)CCOCC1)NO`, in [5], the affinity, expressed as Ki, was 23 nM.

On to `CN(C)c1ccc(-c2cn(-c3ccc(S(=O)(=O)C4(C(=O)NO)CCNCC4)cc3)nn2)cc1`, for which the results for the IC50 in [3] and in assay [4] were 1.7 nM and 43.9 nM, respectively.

As for `O=C(OCc1ccccc1)c1cn2c(=O)n(Cc3ccccc3)c(=O)cc2s1`, the IC50 in [6], in assay [1], in [7], in [2], in assay [3] and in assay [8] was greater than 30000 nM in each case. The IC50 in assay [9], in assay [4] and in assay [5] was greater than 30000 nM throughout.

For `Cn1c(=O)n(Cc2ccc(C(=O)O)cc2)c(=O)c2cc(C#CCc3ccccc3)ccc21`, the IC50 in assay [6], in [1], in assay [7], in assay [2], in assay [3] and in assay [8] was greater than 30000 nM throughout. Moreover, the IC50 in assay [9], in [4] and in [5] was greater than 30000 nM in each case.

In the case of `NC(=O)CC1CCCc2sc3nc(C(=O)NCc4ccc5c(c4)NC(=O)CO5)[nH]c(=O)c3c21` (racemic), the IC50 in assay [1], in [7], in assay [3], in assay [8], in [9] and in assay [4] was greater than 2500 nM in each case. This compound showed an IC50 in [5] greater than 2500 nM.

The term IC50 denotes the concentration that gives 50% inhibition. Low values mean greater potency in that assay, high ones weaker potency in that assay. Usually Ki stands for a dissociation constant, usually derived from enzyme kinetics or from competition with a known ligand. A lower Ki goes with higher affinity.
